Reference: patent publication US11442059B2, “Method for treating a chronic itch condition by administering small molecule MrgprX4 antagonists” (The Johns Hopkins University, priority 2017, dated 2022)
Each block holds one molecule with its values, some of them ahead of it. Non-standard residues stand in square brackets, D forms with d. Residues, ends and D or L forms follow the SMILES beside them. *: point of attachment. Boc = CC(C)(C)OC(=O)*; OBn = c1ccc(CO*)cc1; For = O=C*

Assays:
MrgprA1 [1] = biological target: T1, MrgprA1 (Mus musculus, UniProt Q91WW5); test: Fura 2-AM calcium imaging, EC50 and IC50 determinations, MRGPRA1 HEK293 cells; assay type: cell-based; conditions: for activation of MRGPRA1-expressing cells (calcium): concentration-Ca2+ response, FIG. 24D
T1 construct: expressed in transfected cells; whole cells or crude membrane fraction
T1 sequence (Q91WW5 1-304): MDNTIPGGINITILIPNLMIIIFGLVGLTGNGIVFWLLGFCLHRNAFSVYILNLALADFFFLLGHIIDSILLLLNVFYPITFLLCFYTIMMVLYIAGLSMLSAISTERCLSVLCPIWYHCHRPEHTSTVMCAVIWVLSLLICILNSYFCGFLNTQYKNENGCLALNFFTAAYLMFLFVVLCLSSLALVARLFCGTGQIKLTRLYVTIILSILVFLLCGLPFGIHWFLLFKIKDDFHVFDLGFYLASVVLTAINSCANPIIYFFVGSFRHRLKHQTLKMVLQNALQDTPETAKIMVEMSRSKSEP
Procedure: (§1) Cells were imaged in calcium imaging buffer (CIB; 10 mM HEPES, 1.2 mM NaHCO3, 130 mM NaCl, 3 mM KCl, 2.5 mM CaCl2, 0.6 mM MgCl2, 20 mM glucose, and 20 mM sucrose at pH 7.4 and 290-300 mOsm). To monitor changes in intracellular [Ca^2+] ([Ca^2+]i), cells were loaded with either Fura 2-AM (HEK293 cells) or Fluo 4-AM (DRG neurons and mast cells) for 30 min in the dark at 37° C. in CIB just prior to imaging. With Fura 2-AM, emission at 510 nm was monitored from excitation at both 340 nm and 380 nm. With Fluo 4-AM, emission at 520 nm was monitored from excitation at 488 nm. Cells were identified as responding if the intracellular [Ca^2+] rose by either 50% compared to baseline or 50% compared to the [Ca^2+]i change assayed during addition of 50 mM KCl (neurons only). Damaged, detached, high-baseline, and motion-activated cells were excluded from analysis.
(§2) In initial screens, HEK293 cells stably expressing the murine G-protein alpha-subunit Gα15, a unique Gα protein that non-selectively couples a large variety of GPCRs to phospholipase C^30, were plated on poly-D-lysine-coated coverslips and transiently transfected with constructs encoding the MRGRPR of interest. 12-24 h later, cells were loaded with the Fura 2-AM. Unless otherwise specified, compounds were perfused into the imaging chamber for approximately thirty seconds after a baseline period was established. Response was then monitored at 5 s intervals for an additional 60 s.
(§3) HEK293 cells stably expressing either MRGPRA1, MRGPRX4, and MRGRPC11 were seeded in poly-D-lysine-coated 96-well plates at 10,000 cells/well. Cells were loaded with Fura 2-AM, washed twice, and maintained in CIB. Haem metabolites were freshly dissolved in DMSO in dim light and then diluted into a buffer comprised of 20 mM Tris and 150 mM NaCl at pH 8.8. Potential changes in pH were evaluated prior to each experiment. EC50 values were determined from dose-responses performed in triplicate, repeated 2-4 times. To determine potential antagonism by QWF against bilirubin, cells were treated with varying doses of QWF for 1 min in CIB prior to application of agonist.

MRGPRX4 [2] = biological target: T2, MRGPRX4 (Homo sapiens, UniProt Q96LA9); test: Fura 2-AM calcium imaging, EC50 determinations, MRGPRX4 HEK293 cells; assay type: cell-based; design: expressed in transfected cells; whole cells or crude membrane fraction; conditions: for activation of MRGPRX4-expressing cells (calcium): concentration-Ca2+ response, FIG. 24I
T2 sequence (Q96LA9 whole entry): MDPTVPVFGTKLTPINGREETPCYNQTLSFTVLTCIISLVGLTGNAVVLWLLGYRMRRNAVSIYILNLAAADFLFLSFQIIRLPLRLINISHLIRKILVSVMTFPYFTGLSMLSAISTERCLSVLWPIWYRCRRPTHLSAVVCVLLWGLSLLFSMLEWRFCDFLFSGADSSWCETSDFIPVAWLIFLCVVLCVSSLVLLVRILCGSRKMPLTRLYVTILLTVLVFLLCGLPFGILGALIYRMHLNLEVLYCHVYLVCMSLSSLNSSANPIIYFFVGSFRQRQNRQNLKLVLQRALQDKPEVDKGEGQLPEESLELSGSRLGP
Procedure: as §1, §2
as §3, with “To determine potential antagonism by QWF against bilirubin, cells were treated with varying doses of QWF for 1 min in CIB prior to application of agonist.” left out

MrgprA1 [3] = biological target: T1, MrgprA1; test: FLIPR calcium assay (Flexstation3), HEK cells stably expressing MrgprA1; assay type: cell-based; conditions: MrgprA1 HEK cells, FIG. 17B
Procedure: EC50s were calculated using HEK cells stably expressing either MrgprA1 or MrgprX4. Cells were loaded with FLIPR calcium imaging dye, and a Flexstation3 machine (Molecular Devices) was used for reading changes in fluorescence. Wells were run in triplicate, and all values from each plate were normalized to the highest responding well. […] The x-axis depicts a modified logarithmic scale. […] FIG. 18B is a graph depicting the EC50 for MrgprX4 for bilirubin is approximately 3 μM.

mice [4] = test system: mice
mice [5] = test: Acute itch behaviour after injection (scratching bouts); assay type: in vivo, mouse
[6] = biological target: human MRGPRX3 (Mas-related G-protein coupled receptor member X3) (human) (UniProt Q96LB0); test: cell-based or functional assay
Sequence of human MRGPRX3 (Mas-related G-protein coupled receptor member X3) (human) (Q96LB0 whole entry): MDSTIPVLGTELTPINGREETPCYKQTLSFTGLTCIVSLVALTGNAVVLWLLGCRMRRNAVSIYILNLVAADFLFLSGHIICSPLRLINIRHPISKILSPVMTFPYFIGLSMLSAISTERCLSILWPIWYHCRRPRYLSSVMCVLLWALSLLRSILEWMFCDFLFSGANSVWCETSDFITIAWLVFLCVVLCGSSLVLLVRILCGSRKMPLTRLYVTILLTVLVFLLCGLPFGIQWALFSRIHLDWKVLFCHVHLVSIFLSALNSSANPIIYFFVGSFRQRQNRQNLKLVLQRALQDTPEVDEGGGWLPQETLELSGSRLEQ

MrgprA1 [7] = biological target: T1, MrgprA1; test: Microscale thermophoresis binding assay, MRGPRA1; conditions: FIG. 24E
Procedure: (§4) Binding isotherms for MRGPRA1, MRGPRX4, and MRGRPC11 towards various ligands were determined by microscale thermophoresis with the NanoTemper monolith NT.115 instrument^27. Ligands were pre-incubated with 10 μM of the GFP-tagged receptor of interest for 5 minutes at room temperature in binding buffer (20 mM Tris and 150 mM NaCl at pH 8.8). Receptors were crudely purified as a membrane fraction from cells stably expressing the receptor^45. Haem metabolites were freshly dissolved in 0.1 M NaOH in dim light and then diluted into assay buffer. Lyophilized BAMS-22 was dissolved in binding buffer. The pH of each ligand was evaluated prior to incubation with a receptor. Samples were loaded into NT.115 Hydrophobic-Treated Capillaries from NanoTemper. Microscale thermophoretic experiments were executed using 20% LED power and 15% MST power. KDs were calculated using the law of mass action with data from three independent experiments. Binding between bilirubin and receptors was evaluated purely thermophoretically, whereas binding between BAMS-22 and MRGPRC11 was evaluated by T-Jump. Samples with dramatic deviations in initial fluorescence were excluded.

MRGPRX4 [8] = biological target: T2, MRGPRX4; test: Microscale thermophoresis binding assay, MRGPRX4; design: expressed in transfected cells; whole cells or crude membrane fraction; conditions: FIG. 24J
Procedure: as §4

mouse Mrgpra1 = biological target: T3, mouse Mrgpra1 (Mus musculus, UniProt Q91WW5); test: Ca2+ imaging / EC50 determination in HEK293 cells expressing Mrgpra1; assay type: cell-based; conditions: Mrgprs individually expressed in HEK293 cells
T3 construct: expressed in transfected cells; host or cells: HEK293
T3 sequence (Q91WW5 1-304): T1 sequence (Q91WW5 1-304)
Procedure: (§5) Lamotrigine (LTG), allopurinol, carbamazepine and oxcarbazepine (all from Sigma) were prepared fresh on the day of the experiment. These drugs were dissolved into dimethyl sulfoxide (DMSO) first, and then were diluted at least 10000× into calcium imaging buffer before use. The final concentrations of drugs for each experiment were indicated in the corresponding figure legend.
(§6) In initial experiments, HEK293 cells were plated on 100 μg/ml poly-D-lysine coated glass cover slips, and transiently transfected with vector containing Mrgprs gene, after 24-48 hours of culture, cells were loaded with Fura 2-acetomethoxy ester calcium indicator (0.5 μM, Molecular Probes) along with pluronic F-127 dispersing agent (0.1%, Molecular Probes) for 30 minutes in the dark at 37° C., then washed with calcium imaging buffer (CIB; NaCl 125 mM, KCl 3 mM, CaCl2 2.5 mM, MgCl2 0.6 mM, HEPES 10 mM, glucose 20 mM, NaHCO3 1.2 mM, sucrose 20 mM, brought to pH 7.4 with NaOH). Drugs were added to Fura 2-loaded cells and intracellular free calcium was measured using 340 nm and 380 nm excitation wavelengths with emission measured at 520 nm with a microscope based imaging system (Nikon Eclipse TE200). Changes in emission fluorescence ratios at 340/380 nm excitation were continuously monitored at 1 second intervals. Later, experiments were performed using Mrgpra1-GFP, Mrgprc11-GFP and MRGPRX4-GFP stable cell lines to confirm the findings obtained from the transiently expressing cells.
(§7) Mrgpra1 or both wild-type and mutant MRGPRX4 stably expressed HEK cells were plated overnight in 100 μl culture media on 96-well plates. […] After 1 hour of incubation at 37° C., cells were allowed to recover for 10 minutes in the dark at room temperature prior to performing intracellular calcium mobilization assay in a FLEXSTATION® multi-mode plate reader (Molecular Devices). […] Responses were determined by subtracting the minimum signal (at the basal level before adding the drug) from the maximum signal (obtained after stimulating with the drug). […]

MRGPRX4 [9] = biological target: T2, MRGPRX4; test: Ca2+ imaging / EC50 determination in HEK293 cells expressing MRGPRX4; assay type: cell-based; design: expressed in transfected cells; conditions: Mrgprs individually expressed in HEK293 cells
Procedure: as §5, §6, §7

129S1/SvImJ mice = test: SJS/TEN mouse model (daily oral gavage of causative drug); assay type: in vivo; conditions: mouse, in vivo
Procedure: Eight-to-ten week old male mice were orally gavaged with either causative drugs (LTG, allopurinol, oxcarbazepine) suspended in saline or saline once daily. The dosage was based on milligrams per kilogram of animal's body weight as indicated (for example, LTG 50 mg kg^−1 body weight). Skin, eyes, and mucosa, survival, body weight, physical and gross appearances (particularly on the eyes, mucosa and skins) were monitored every day.
The animals were deeply anesthetized with pentobarbital and transcardially perfused with 20 ml 0.1 M cold PBS (pH 7.4) followed with 25 ml of cold 4% paraformaldehyde (PFA). Paw skin, eyelid, spleen, lymph nodes were dissected out. postfixed in 4% PFA for more than two hours, and cryoprotected in a 20% followed by 30% sucrose solution for 24 hours each at 4° C. Tissue samples were embedded in the optimal cutting temperature (OCT) and frozen before being serially cut into 20 μm sections and placed onto slides. Hematoxylin and eosin (H&E) staining was performed using standard procedures according to the manufacturer's instruction VITROVIEW™ H&E Stain Kit). To quantify amount of apoptotic cells, terminal deoxynucleotidyl transferase dUTP nick end labeling (TUNEL) assay, a method for detecting DNA fragmentation that results from apoptotic cells by labeling the terminal end of nucleic acids, was performed by following the protocol of Apo-BrdU DNA Fragmentation Assay Kit (Biovision). To estimate the total cell number in tissue, all nuclei were stained with propidium iodide. Digital photographs were captured under confocal fluorescent microscopy at x200 magnification (Zeiss LSM 700). The number of TUNEL-positive nuclei were counted and reported as a percentage over the number of total nuclei observed in the skin's epidermis layer.

[10] = biological target: T4, murine MRGPRA1 stably expressed in HEK293 cells (GFP-tagged, pEGFP-N1) (mouse, UniProt Q91WW5 1-304); test: cell-based or functional assay
T4 sequence (looked up): T1 sequence (Q91WW5 1-304)

[11] = 10 μM pre-incubated 30 minutes, 50 μM bilirubin

Molecule: COc1ccc2c(c1)CC[C@@H]1[C@@H]2CC[C@]2(C)[C@@H](NCCCCCCN3C(=O)C=CC3=O)CC[C@@H]12 [U73122]
effect on bilirubin-induced calcium responses, MRGPRA1 (MrgprA1 [1]; [11]): abolished
effect on bilirubin-induced calcium responses, MRGPRX4 (MRGPRX4 [2]; [11]): inhibited
effect on bilirubin calcium influx (MrgprA1 [3]): blocked the calcium influx

Molecule: CC(C)(C)OC(=O)N[C@@H](CCC(N)=O)C(=O)N[C@H](Cc1cn(C=O)c2ccccc12)C(=O)N[C@@H](Cc1ccccc1)C(=O)OCc1ccccc1 [QWF, BOC-GLN-D-(FORMYL)TRP-PHE-BENZYLESTER] (Boc-Gln-[dW](For)-Phe-OBn)
scratching versus vehicle-treated animals (mice [4]; ANIT-dosed WT animals, 1 mg/kg i.p. thirty minutes prior to behavioral analysis): scratched significantly less
plasma levels of total bilirubin, AST, ALT, or ALP (mice [4]; mouse, in vivo, ip, 1 mg/kg): did not change
effect on pruritus associated with bilirubin (mice [5]; 0.25 mg/kg co-injected with bilirubin): significantly alleviated pruritus
effect on chloroquine-MRGPRA3 associated itch (mice [5]; co-injected with chloroquine): did not attenuate

percentage of primary human keratinocytes that responded to hBD3 (Ca^2+), after siRNA knock-down of MRGPRX3 [6]: < 20%
percentage of primary human keratinocytes that responded to hBD3 (Ca^2+), before MRGPRX3 knock-down [6]: > 80%
Molecule: synthetic human Beta-defensin 3 (hBD3) (from UniProt P81534 23-67) (peptide)

activation of MRGPRA1-expressing cells (calcium) (MrgprA1 [1]): activated
binding to MRGPRA1 (MrgprA1 [7]): lower affinities compared to bilirubin
binding to MRGPRX4 (MRGPRX4 [8]): lower affinities compared to bilirubin
activation of MRGPRX4-expressing cells (calcium) (MRGPRX4 [2]): activated
Molecule: C=CC1=C(C)/C(=C/c2[nH]c(Cc3[nH]c(/C=C4\NC(=O)C(C)=C4C=C)c(C)c3CCC(=O)NCCS(=O)(=O)O)c(CCC(=O)NCCS(=O)(=O)O)c2C)NC1=O [Conjugated bilirubin, bilirubin ditaurate]

Molecule: S=C=Nc1cccc2ccccc12 [ANIT, α-naphthyl isothiocyanate]
reduction in scratching bouts, Cluster KO versus WT littermates (mice [4]; 25 mg/kg ANIT per os daily): ~46%

activation of MRGPRA1-expressing cells (calcium) (MrgprA1 [1]): failed to activate
binding to MRGPRA1 (MrgprA1 [7]): did not bind
binding to MRGPRX4 (MRGPRX4 [8]): did not bind
activation of MRGPRX4-expressing cells (calcium) (MRGPRX4 [2]): no effect
Molecule: C=CC1=C(C)c2cc3[n-]c(cc4nc(cc5[n-]c(cc1n2)c(C)c5C=C)C(C)=C4CCC(=O)O)c(CCC(=O)O)c3C.[Cl-].[Fe+3] [haemin]
scratching / itch elicited by injection (mice [5]; WT mice): did not induce scratching

activation of mouse Mrgpra1 (Ca2+ imaging) (mouse Mrgpra1): specifically activated
activation of human MRGPRX4 (Ca2+ imaging) (MRGPRX4 [9]): specifically activated
eye manifestation (129S1/SvImJ mice): can also induce eye manifestation
Molecule: NC(=O)N1c2ccccc2CC(=O)c2ccccc21 [oxcarbazepine]

IC50 for inhibition of bilirubin-induced Ca^2+ signal in MRGPRA1-expressing HEK cells (200 µM bilirubin) [10]: 2900 nM
B1: BOC-GLN-D-(FORMYL)TRP-PHE-BENZYLESTER (QWF) (peptide)
peptide: Boc-Gln-[dW](For)-Phe-OBn
